Experimental data as given in ChEMBL document CHEMBL2401689, “Design, synthesis and antibacterial activity studies of thiazole derivatives as potent ecKAS III inhibitors” (Bioorg Med Chem Lett, 2013).
pIC50: −log10 of the molar value. ≈ marks a conversion by molar mass, not a printed value.

Tests used:
Escherichia coli = assay: Antibacterial activity against Escherichia coli ATCC 35218 after 24 hrs by MTT assay; type: functional; settings: ATCC 35218, 24 h
Bacillus spizizenii = assay: Antibacterial activity against Bacillus subtilis ATCC 6633 after 24 hrs by MTT assay; type: functional; settings: ATCC 6633, 24 h
Pseudomonas aeruginosa = assay: Antibacterial activity against Pseudomonas aeruginosa ATCC 13525 after 24 hrs by MTT assay; type: functional; settings: ATCC 13525, 24 h
[1] = Hemolytic activity in RBC (uinknown origin); type: cell-based; settings: erythrocyte
Staphylococcus aureus = assay: Antibacterial activity against Staphylococcus aureus ATCC 6538 after 24 hrs by MTT assay; type: functional; settings: ATCC 6538, 24 h
[2] = Displacement of [3H]acetyl-CoA from Escherichia coli full-length beta-ketoacyl-ACP synthase3 expressed in Escherichia coli BL21 (DE3) by liquid scintillation counting analysis

SMILES | MIC (Escherichia coli) | MIC (Bacillus spizizenii) | MIC (Pseudomonas aeruginosa) | LC30 [1] | MIC (Staphylococcus aureus) | pIC50 [2]
O=C(Cc1ccc(Cl)cc1)Nc1nc(-c2ccc(Br)cc2)cs1 | 12.5 µg/mL (≈ 30.7 µM) | 12.5 µg/mL (≈ 30.7 µM) | 25 µg/mL (≈ 61.3 µM) | > 10000 µg/mL | 12.5 µg/mL (≈ 30.7 µM) | 4.46
O=C(Cc1ccc(Br)cc1)Nc1nc(-c2ccc(Br)cc2)cs1 | 25 µg/mL (≈ 55.3 µM) | 25 µg/mL (≈ 55.3 µM) | 50 µg/mL (≈ 111 µM) | > 10000 µg/mL | 25 µg/mL (≈ 55.3 µM) | 4.32
O=C(Cc1cccc(Cl)c1)Nc1nc(-c2ccc(Br)cc2)cs1 | 1.56 µg/mL (≈ 3.83 µM) | 6.25 µg/mL (≈ 15.3 µM) | 3.13 µg/mL (≈ 7.68 µM) | > 10000 µg/mL | 3.13 µg/mL (≈ 7.68 µM) | 5.28
O=C(Cc1cccc(Br)c1)Nc1nc(-c2ccc(Br)cc2)cs1 | 6.25 µg/mL (≈ 13.8 µM) | 6.25 µg/mL (≈ 13.8 µM) | 12.5 µg/mL (≈ 27.6 µM) | > 10000 µg/mL | 6.25 µg/mL (≈ 13.8 µM) | 5.01
COc1cccc(CC(=O)Nc2nc(-c3ccc(Br)cc3)cs2)c1 | 25 µg/mL (≈ 62 µM) | 25 µg/mL (≈ 62 µM) | 50 µg/mL (≈ 124 µM) | > 10000 µg/mL | 50 µg/mL (≈ 124 µM) | 4.18
CCOc1ccc(CC(=O)Nc2nc(-c3ccc(Br)cc3)cs2)cc1OCC | 50 µg/mL (≈ 108 µM) | 50 µg/mL (≈ 108 µM) | 25 µg/mL (≈ 54.2 µM) | – | > 100 µg/mL | –
O=C(Nc1nc(-c2ccc(Br)cc2)cs1)c1ccccc1 | > 100 µg/mL | > 100 µg/mL | > 100 µg/mL | – | > 100 µg/mL | –
O=C(Nc1nc(-c2ccc(Br)cc2)cs1)c1cccc2ccccc12 | 50 µg/mL (≈ 122 µM) | > 100 µg/mL | 100 µg/mL (≈ 244 µM) | – | > 100 µg/mL | –
O=C(Nc1nc(-c2ccc(Br)cc2)cs1)c1ccc2ccccc2c1 | > 100 µg/mL | > 100 µg/mL | > 100 µg/mL | – | > 100 µg/mL | –
O=C(Nc1nc(-c2ccc(Br)cc2)cs1)N1CCOCC1 | 50 µg/mL (≈ 136 µM) | 100 µg/mL (≈ 272 µM) | > 100 µg/mL | – | > 100 µg/mL | –
O=C(Cc1ccc(Br)cc1)Nc1nc(-c2ccccc2)cs1 | 50 µg/mL (≈ 134 µM) | 25 µg/mL (≈ 67 µM) | 50 µg/mL (≈ 134 µM) | – | 50 µg/mL (≈ 134 µM) | –
O=C(Cc1cccc(Cl)c1)Nc1nc(-c2ccccc2)cs1 | 6.25 µg/mL (≈ 19 µM) | 12.5 µg/mL (≈ 38 µM) | 6.25 µg/mL (≈ 19 µM) | > 10000 µg/mL | 6.25 µg/mL (≈ 19 µM) | 4.91
O=C(Cc1cccc(Br)c1)Nc1nc(-c2ccccc2)cs1 | 12.5 µg/mL (≈ 33.5 µM) | 6.25 µg/mL (≈ 16.7 µM) | 12.5 µg/mL (≈ 33.5 µM) | > 10000 µg/mL | 3.13 µg/mL (≈ 8.39 µM) | 4.57
COc1cccc(CC(=O)Nc2nc(-c3ccccc3)cs2)c1 | 50 µg/mL (≈ 154 µM) | 100 µg/mL (≈ 308 µM) | 50 µg/mL (≈ 154 µM) | – | 50 µg/mL (≈ 154 µM) | –
CCOc1ccc(CC(=O)Nc2nc(-c3ccccc3)cs2)cc1OCC | 50 µg/mL (≈ 131 µM) | > 100 µg/mL | 50 µg/mL (≈ 131 µM) | – | > 100 µg/mL | –
O=C(Nc1nc(-c2ccccc2)cs1)c1cccc2ccccc12 | > 100 µg/mL | > 100 µg/mL | > 100 µg/mL | – | > 100 µg/mL | –
O=C(Nc1nc(-c2ccccc2)cs1)c1ccc2ccccc2c1 | > 100 µg/mL | 50 µg/mL (≈ 151 µM) | > 100 µg/mL | – | > 100 µg/mL | –
O=C(Nc1nc(-c2ccccc2)cs1)N1CCOCC1 | > 100 µg/mL | > 100 µg/mL | > 100 µg/mL | – | > 100 µg/mL | –
O=C(Cc1ccccc1)Nc1nc(-c2ccc(Br)cc2)cs1 | 50 µg/mL (≈ 134 µM) | 25 µg/mL (≈ 67 µM) | 50 µg/mL (≈ 134 µM) | – | 25 µg/mL (≈ 67 µM) | –
O=C(Cc1ccc(F)cc1)Nc1nc(-c2ccc(Br)cc2)cs1 | 12.5 µg/mL (≈ 31.9 µM) | 6.25 µg/mL (≈ 16 µM) | 12.5 µg/mL (≈ 31.9 µM) | > 10000 µg/mL | 12.5 µg/mL (≈ 31.9 µM) | 4.53
O=C(Cc1ccccc1)Nc1nc(-c2ccccc2)cs1 | 100 µg/mL (≈ 340 µM) | 50 µg/mL (≈ 170 µM) | 100 µg/mL (≈ 340 µM) | – | 25 µg/mL (≈ 84.9 µM) | –
O=C(Cc1ccc(F)cc1)Nc1nc(-c2ccccc2)cs1 | 12.5 µg/mL (≈ 40 µM) | 12.5 µg/mL (≈ 40 µM) | 25 µg/mL (≈ 80 µM) | > 10000 µg/mL | 12.5 µg/mL (≈ 40 µM) | 4.42
O=C(Cc1ccc(Cl)cc1)Nc1nc(-c2ccccc2)cs1 | 25 µg/mL (≈ 76 µM) | 12.5 µg/mL (≈ 38 µM) | 25 µg/mL (≈ 76 µM) | > 10000 µg/mL | 25 µg/mL (≈ 76 µM) | 4.38
O=C(Nc1nc(-c2ccccc2)cs1)c1ccccc1 | > 100 µg/mL | > 100 µg/mL | > 100 µg/mL | – | > 100 µg/mL | –
NC[C@H]1O[C@H](O[C@H]2[C@H](O)[C@@H](O[C@H]3O[C@H](CO)[C@@H](O)[C@H](N)[C@H]3O)[C@H](N)C[C@@H]2N)[C@H](N)[C@@H](O)[C@@H]1O [BEKANAMYCIN] | 1.56 µg/mL (≈ 3.23 µM) | 0.39 µg/mL (≈ 0.807 µM) | 3.13 µg/mL (≈ 6.47 µM) | – | 3.13 µg/mL (≈ 6.47 µM) | –
CC1(C)S[C@@H]2[C@H](NC(=O)Cc3ccccc3)C(=O)N2[C@H]1C(=O)O [PENICILLIN G] | 3.13 µg/mL (≈ 9.36 µM) | 1.56 µg/mL (≈ 4.67 µM) | 6.25 µg/mL (≈ 18.7 µM) | – | 6.25 µg/mL (≈ 18.7 µM) | –
